Where a name gives a salt, the structure may show the parent alone. Read-outs that look alike come from different tables or passages of the source.
Target: SARS-CoV-2 3CLpro (Severe acute respiratory syndrome coronavirus 2, UniProt P0DTD1)
Assay: biochemical
Assay type: biochemical
Set-up: Replicate_1 / Replicate_2 / mean / mean (LOPAC_screen_w_protease): unit not given here
Details: for inhibition at 5 µM: 4 h
[1] = read-out: Replicate_1 (LOPAC_screen_w_protease)
[2] = read-out: Replicate_2 (LOPAC_screen_w_protease)
[3] = sheet LOPAC_screen_w_protease, primary screen of LOPAC1280 at 5 µM with protease, mean of the two replicates
[4] = sheet LOPAC_screen_w_protease, primary screen of LOPAC1280 at 5 µM with protease, replicate 1
[5] = sheet LOPAC_screen_w_protease, primary screen of LOPAC1280 at 5 µM with protease, replicate 2
[6] = sheet LOPAC_screen_w_protease, primary screen at 5 µM, mean of two replicates, read-out: mean (LOPAC screen with protease)
[7] = sheet LOPAC_screen_w_protease, primary screen at 5 µM, replicate 1, read-out: Replicate_1 (LOPAC screen with protease)
[8] = sheet LOPAC_screen_w_protease, primary screen at 5 µM, replicate 2, read-out: Replicate_2 (LOPAC screen with protease)
[9] = sheet LOPAC_screen_w_protease, LOPAC1280 primary screen at 5 µM, with protease, mean of the two replicates
[10] = sheet LOPAC_screen_w_protease, LOPAC1280 primary screen at 5 µM, with protease, replicate 1
[11] = sheet LOPAC_screen_w_protease, LOPAC1280 primary screen at 5 µM, with protease, replicate 2
[12] = sheet LOPAC_screen_w_protease, LOPAC1280 primary screen with protease, 5 µM compound, mean of the two replicates
[13] = sheet LOPAC_screen_w_protease, LOPAC1280 primary screen with protease, 5 µM compound, replicate 1
[14] = sheet LOPAC_screen_w_protease, LOPAC1280 primary screen with protease, 5 µM compound, replicate 2
[15] = LOPAC1280 primary screen with protease, 5 µM compound, mean of two replicates
[16] = LOPAC1280 primary screen with protease, 5 µM compound, replicate 1
[17] = LOPAC1280 primary screen with protease, 5 µM compound, replicate 2
[18] = LOPAC1280 primary screen with protease, 5 µM compound, mean of the two replicates
[19] = sheet LOPAC_screen_w_protease, LOPAC1280 at 5 µM, mean of two replicates
[20] = sheet LOPAC_screen_w_protease, LOPAC1280 at 5 µM, replicate 1
[21] = sheet LOPAC_screen_w_protease, LOPAC1280 at 5 µM, replicate 2

OC(CCN1CCCCC1)(c1ccccc1)C1CCCCC1 (stereo not drawn) [Trihexyphenidyl hydrochloride]
inhibition at 5 µM [1]: 1.61%
inhibition at 5 µM [2]: 1.86%

O=C1c2c(O)cc(O)cc2O[C@H](c2ccc(O)c(O)c2)[C@H]1O [dihydroquercetin, reference compound]
inhibition of 3CLpro in the primary screen (5 µM compound, 0.01% Triton X-100, 4 h endpoint, duplicate mean): 7.5%

Cl.N[C@@H](Cc1cnc[nH]1)C(=O)O [L-Histidine hydrochloride]
mean [3]: 3.829
Replicate_1 [4]: 4.566
Replicate_2 [5]: 3.093

COc1ccc(Cl)cc1C(=O)NCCc1ccc(S(=O)(=O)NC(=O)NC2CCCCC2)cc1 [Glibenclamide]
inhibition at 5 µM (sheet LOPAC_screen_w_protease, LOPAC1280 primary screen at 5 µM, with protease, mean of the two replicates, read-out: mean): 0.733%
inhibition at 5 µM (sheet LOPAC_screen_w_protease, LOPAC1280 primary screen at 5 µM, with protease, replicate 1, read-out: Replicate_1): 1.31%
inhibition at 5 µM (sheet LOPAC_screen_w_protease, LOPAC1280 primary screen at 5 µM, with protease, replicate 2, read-out: Replicate_2): 0.155%

CCNC(=O)[C@H]1O[C@@H](n2cnc3c(N)nc(NCCc4ccc(CCC(=O)O)cc4)nc32)[C@H](O)[C@@H]1O.Cl [CGS-21680 hydrochloride]
mean [3]: 3.628
Replicate_1 [4]: 4.89
Replicate_2 [5]: 2.366

Clc1ccc(C(c2ccc(Cl)cc2)n2cc[n+](CC(OCc3ccc(Cl)cc3Cl)c3ccc(Cl)cc3Cl)c2)cc1 (stereo not drawn) [Calmidazolium chloride]
inhibition at 5 µM [6]: 9.31%
inhibition at 5 µM [7]: 8.14%
inhibition at 5 µM [8]: 10.5%

COc1ccc(CCN(C)CCc2ccc(OC)c(OC)c2)cc1OC.Cl [YS-035 hydrochloride]
mean [9]: 0.8264
Replicate_1 [10]: 0.7595
Replicate_2 [11]: 0.8934

Cc1nc(N=Nc2ccc(S(=O)(=O)O)cc2S(=O)(=O)O)c(COP(=O)(O)O)c(C=O)c1O [PPADS]
mean (sheet LOPAC_screen_w_protease, primary screen with protease, 5 µM, mean of two replicates): 0.05886
Replicate_1 (sheet LOPAC_screen_w_protease, primary screen with protease, 5 µM, replicate 1): -0.6012
Replicate_2 (sheet LOPAC_screen_w_protease, primary screen with protease, 5 µM, replicate 2): 0.7189

S-Nitroso-N-acetylpenicillamine
mean [12]: 5.369
Replicate_1 [13]: 5.411
Replicate_2 [14]: 5.326

CC(N)Cc1c[nH]c2ccc(OCc3cccs3)cc12 (stereo not drawn) [BW 723C86]
Replicate_1: 2.832
Replicate_2: 3.4189
mean: 3.125

CC(C)[C@H]1CN[C@H](C(=O)O)[C@H]1CC(=O)O [Dihydrokainic acid]
mean [9]: 0.7305
Replicate_1 [10]: 1.689
Replicate_2 [11]: -0.2284

CN1CC[C@@]2(C)c3cc(O)ccc3N(C)[C@@H]12.O=C(O)/C=C/C(=O)O [(-)-Eseroline fumarate]
mean (LOPAC screen with protease) (sheet LOPAC_screen_w_protease, primary screen at 5 µM, mean of two replicates): 88.3904
Replicate_1 (LOPAC screen with protease) (sheet LOPAC_screen_w_protease, primary screen at 5 µM, replicate 1): 89.8661
Replicate_2 (LOPAC screen with protease) (sheet LOPAC_screen_w_protease, primary screen at 5 µM, replicate 2): 86.9147

CC(C)NC(C)Cc1ccc(I)cc1 (stereo not drawn) [Iofetamine hydrochloride]
inhibition at 5 µM (read-out: Replicate_1): 3.54%
inhibition at 5 µM (read-out: Replicate_2): 3.79%
inhibition at 5 µM (read-out: mean): 3.67%

CN1CCN(CC/C=C2/c3ccccc3Sc3ccc(S(=O)(=O)N(C)C)cc32)CC1.Cl [Thiothixene hydrochloride]
mean (LOPAC_screen_w_protease) [15]: 1.56
Replicate_1 (LOPAC_screen_w_protease) [16]: 2.053
Replicate_2 (LOPAC_screen_w_protease) [17]: 1.066

CC(C)C[C@H]1C(=O)N2CCC[C@H]2[C@]2(O)O[C@](NC(=O)[C@@H]3C=C4c5cccc6[nH]c(Br)c(c56)C[C@H]4N(C)C3)(C(C)C)C(=O)N12.CS(=O)(=O)O [(+)-Bromocriptine methanesulfonate]
mean (LOPAC_screen_w_protease) [18]: 1.984
Replicate_1 (LOPAC_screen_w_protease) [16]: 2.405
Replicate_2 (LOPAC_screen_w_protease) [17]: 1.562

CCN(c1nc(N)c(C(=O)NC(=N)N)nc1Cl)C(C)C [5-(N-Ethyl-N-isopropyl)amiloride]
inhibition at 5 µM (sheet LOPAC_screen_w_protease, LOPAC1280 at 5 µM, mean of two replicates, read-out: mean): 1.01%
inhibition at 5 µM (sheet LOPAC_screen_w_protease, LOPAC1280 at 5 µM, replicate 1, read-out: Replicate_1): 1.63%
inhibition at 5 µM (sheet LOPAC_screen_w_protease, LOPAC1280 at 5 µM, replicate 2, read-out: Replicate_2): 0.388%

CN1C2CCC1CC(NC(=O)c1nn(C)c3ccccc13)C2.O=C(O)/C=C\C(=O)O (stereo not drawn) [LY-278,584 maleate]
mean [12]: 4.776
Replicate_1 [13]: 3.942
Replicate_2 [14]: 5.61

NCC1(CC(=O)O)CCCCC1 [Gabapentin]
mean (LOPAC_screen_w_protease): 1.9821
inhibition at 5 µM [1]: 3.94%
inhibition at 5 µM [2]: 0.0248%

Cl.Cl.NCCC(=O)NCCc1c[nH]cn1 [Carcinine dihydrochloride]
mean (LOPAC_screen_w_protease) [15]: 1.47
Replicate_1 (LOPAC_screen_w_protease) [16]: -0.04434
Replicate_2 (LOPAC_screen_w_protease) [17]: 2.985

CC(CN(C)C)CN1c2ccccc2CCc2ccccc21 (stereo not drawn) [Trimipramine maleate]
inhibition at 5 µM (sheet LOPAC_screen_w_protease, primary screen with protease, mean of two replicates, read-out: mean): 2.36%
inhibition at 5 µM (sheet LOPAC_screen_w_protease, primary screen with protease, replicate 1, read-out: Replicate_1): 3.17%
inhibition at 5 µM (sheet LOPAC_screen_w_protease, primary screen with protease, replicate 2, read-out: Replicate_2): 1.55%

C[C@]12CCC(=O)C=C1CC[C@@H]1[C@@H]2[C@@H](O)C[C@@]2(C)[C@H]1CC[C@]2(O)C(=O)COC(=O)CCC(=O)[O-].[Na+] [Hydrocortisone 21-hemisuccinate sodium]
mean [19]: 1.066
Replicate_1 [20]: 1.635
Replicate_2 [21]: 0.4974

CC1(C)CCC=[N+]1[O-] [5,5-Dimethyl-1-pyrroline-N-oxide]
mean [19]: 1.097
Replicate_1 [20]: 0.9422
Replicate_2 [21]: 1.253

N[C@@H](CCCC(=O)O)C(=O)O [L-2-aminoadipic acid]
mean [19]: 0.8841
Replicate_1 [20]: 1.166
Replicate_2 [21]: 0.6027

N[C@@H](Cc1ccc(F)cc1)C(=O)O [p-Fluoro-L-phenylalanine]
mean (LOPAC_screen_w_protease) [18]: 2.051
Replicate_1 (LOPAC_screen_w_protease) [16]: 4.147
Replicate_2 (LOPAC_screen_w_protease) [17]: -0.04537

Cl.NNC(N)=O [Semicarbazide hydrochloride]
mean (LOPAC_screen_w_protease) [15]: 1.574
Replicate_1 (LOPAC_screen_w_protease) [16]: 1.447
Replicate_2 (LOPAC_screen_w_protease) [17]: 1.701

C[N+](C)(C)CCCCCC[N+](C)(C)C.[Cl-].[Cl-] [Hexamethonium dichloride]
mean (LOPAC_screen_w_protease) [18]: 1.868
Replicate_1 (LOPAC_screen_w_protease) [16]: 3.928
Replicate_2 (LOPAC_screen_w_protease) [17]: -0.1911

Nc1ncnc2c1ncn2[C@@H]1O[C@H](COP(=O)(O)CP(=O)(O)OP(=O)([O-])[O-])[C@H](O)C1O.[Li+].[Li+] (stereo partly drawn)
mean (sheet LOPAC_screen_w_protease, primary screen with protease, compound at 5 µM, mean of two replicates): 2.729
Replicate_1 (sheet LOPAC_screen_w_protease, primary screen with protease, compound at 5 µM, replicate 1): 1.677
Replicate_2 (sheet LOPAC_screen_w_protease, primary screen with protease, compound at 5 µM, replicate 2): 3.782

CCCCS(=N)(=O)CC[C@H](N)C(=O)O (stereo partly drawn) [L-Buthionine-sulfoximine]
inhibition at 5 µM (LOPAC1280 primary screen with protease, 5 µM compound, replicate 1, read-out: Replicate_1 (LOPAC_screen_w_protease)): 1.94%
inhibition at 5 µM (LOPAC1280 primary screen with protease, 5 µM compound, replicate 2, read-out: Replicate_2 (LOPAC_screen_w_protease)): 2.27%
mean (LOPAC_screen_w_protease) [18]: 2.107

CN(C)c1ccc(O)c2c1C[C@H]1C[C@H]3[C@H](N(C)C)C(O)=C(C(N)=O)C(=O)[C@@]3(O)C(O)=C1C2=O [Minocycline hydrochloride]
inhibition at 5 µM (sheet LOPAC_screen_w_protease, LOPAC1280 primary screen with protease, 5 µM compound, mean of the two replicates, read-out: mean): 5.31%
inhibition at 5 µM (sheet LOPAC_screen_w_protease, LOPAC1280 primary screen with protease, 5 µM compound, replicate 1, read-out: Replicate_1): 4.79%
inhibition at 5 µM (sheet LOPAC_screen_w_protease, LOPAC1280 primary screen with protease, 5 µM compound, replicate 2, read-out: Replicate_2): 5.84%

C=CCN1C[C@H](C)N([C@H](c2ccc(C(=O)N(CC)CC)cc2)c2cccc(OC)c2)C[C@H]1C [SNC80]
Replicate_1: -0.408
Replicate_2: 1.648
mean: 0.6198

CSc1ccc2c(c1)N(CCC1CCCCN1C)c1ccccc1S2 (stereo not drawn) [Thioridazine hydrochloride]
inhibition at 5 µM (read-out: Replicate_1): 0.0861%
inhibition at 5 µM (read-out: Replicate_2): 0.816%
inhibition at 5 µM (read-out: mean): 0.451%

COc1ccc2c(c[n+](C)c3c4cc5c(cc4ccc23)OCO5)c1OC [Chelerythrine chloride]
inhibition at 5 µM [6]: 11.5%
inhibition at 5 µM [7]: 12.7%
inhibition at 5 µM [8]: 10.3%

O=C(O)CNC(=O)C(CS)Cc1ccccc1 (racemic) [DL-Thiorphan]
inhibition at 5 µM (sheet LOPAC_screen_w_protease, primary screen with protease, 5 µM, mean of two replicates, read-out: mean): 0.357%
inhibition at 5 µM (sheet LOPAC_screen_w_protease, primary screen with protease, 5 µM, replicate 1, read-out: Replicate_1): -0.479%
inhibition at 5 µM (sheet LOPAC_screen_w_protease, primary screen with protease, 5 µM, replicate 2, read-out: Replicate_2): 1.19%

Source: publication PMC7587356, “High-Throughput Screening for Inhibitors of the SARS-CoV-2 Protease Using a FRET-Biosensor” (Molecules, 2020)
